Measurements taken from US9279105B2, “Enrichment of stem cells from adult tissues” (Board of Supervisors of Louisiana State University And …, priority 2009, dated 2016).

Columns and labels:
Format in all cases: cell-based, rat
[1] = system: DFSCs; experiment: Doxorubicin treatment of DFSCs, count of viable cells (survival rate); conditions: DOX 1 μM, incubation increased from 2 to 4 to 6 hours, compared to control without DOX; FIG. 2
Procedure: (§1) Establishment of cell cultures from rat dental follicle: Dental follicles (DF) were surgically removed from the first mandibular molars of Sprague Dawley rat pups at days 5-7 postnatally, and the isolated DF cells then suspended in MEM medium containing 10% newborn calf serum (NCS), 1 mM sodium pyruvate and antibiotics as previously described (Wise et al., 1992). Next, 5 ml of the cell suspension was transferred into a T-25 cell culture flask and incubated overnight to allow the cells to adhere. […]
(§2) In another experiment to determine to enrich the populations of stem cells, DFSCs were treated with doxorubicin (DOX), a substrate of BCRP, at concentrations of 0.5, 1 or 2 μM for 1, 2, 4 and 6 hrs. […] The number of viable cells was counted in 5 to 10 randomly selected spots (1 mm^2 each) for calculation of the survival rate as the ratio of treatment/control. […]

[2] = system: DFSCs; experiment: Adipogenesis differentiation of cells surviving DOX, Oil Red O staining; conditions: cells that survived DOX for 4 hours; untreated control DFSCs formed only a few adipocytes
Procedure: To determine the differentiation capabilities of the putative stem cells, DFSCs were subjected to various differentiation procedures. For osteogenesis, cells were cultured for 2 weeks in medium consisting of DMEM-LG, 10% FBS, 50 μg/ml ascorbate-2 phosphate, 10^−8 M dexamethasone, and 10 mM β-glycerophosphate […] as previously described, followed by von Kossa and Alizarin Red staining to assess for mineral deposition (as described in Hung et al., 2002). For adipogenesis, DFSCs were cultured for 2 weeks in medium consisting of DMEM-LG, 10% FBS (Invitrogen Corporation, Carlsbad, Calif., USA), 50 μg/ml ascorbate-2 phosphate (Sigma-Aldrich), 10^−7 M dexamethasone, and 50 μg/ml indomethacin, with a medium change every 3 days (Hung et al., 2002). The cells then were stained with Oil red O to evaluate adipogenesis.
as §2, with “hrs. The cells were incubated at 37° C. for the designated duration.” for “hrs.”

[3] = system: DFSCs; experiment: 4-HC treatment of DFSCs for elimination of non-stem cells; conditions: 5-25 μM tested, 48 hours at 37° C., α-MEM with 20% FBS
Procedure: as §1
We also tested an ALDH substrate, 4-hydroperoxycyclophosphamide (4-HC), for elimination of non-stem cells in culture. […] Putative stem cells surviving from a 4-HC treatment expressed a high level of multiple stem cell markers, including Abcb1, Prom1, Notch 1, and CD34, as determined by RT-PCR and western blotting. On the average, about a 2 to 4-fold increase in expression of these markers was detected in the 4-HC surviving cells as compared to the original population.

[4] = system: Abcb1, Prom1, Notch 1, and CD34; experiment: Stem cell marker expression in 4-HC surviving cells by RT-PCR and western blotting; conditions: 4-HC surviving cells compared to the original population; on the average
Procedure: We also tested an ALDH substrate, 4-hydroperoxycyclophosphamide (4-HC), for elimination of non-stem cells in culture. DFSCs were cultured as described above and then treated with 4-HC at the concentrations of 5, 10, 15, 20 and 25 μM in α-MEM medium containing 20% FBS for 48 hours at 37° C. The majority of the cells were killed at a 4-HC concentration greater than 15 μM. The surviving cells then were collected and subjected to cell proliferation, differentiation, and gene expression assays as described above for evaluation of stem cell properties. Putative stem cells surviving from a 4-HC treatment expressed a high level of multiple stem cell markers, including Abcb1, Prom1, Notch 1, and CD34, as determined by RT-PCR and western blotting. On the average, about a 2 to 4-fold increase in expression of these markers was detected in the 4-HC surviving cells as compared to the original population.

[5] = system: dental follicle cells (DFCs; non-stem cells); experiment: 4-HC treatment of dental follicle cells (non-stem cells); conditions: same 4-HC treatment protocol applied to DFCs
[6] = system: DFSCs; experiment: Proliferation of cells surviving 4-HC treatment (flow cytometry analysis)

SMILES	number of surviving cells [1]	adipocyte formation of surviving cells in adipogenesis induction medium [2]	4-HC concentration at which the majority of the cells were killed [3]	increase in expression of stem cell markers [4] [fold]	survival of cells [5]	proliferation rate of putative stem cells surviving 4-HC ([6]; flow cytometry, compared to original cell population not subjected to 4-HC)	effect of 4-HC treatment on proliferation of the cells ([6]; surviving cells)
COc1cccc2c1C(=O)c1c(O)c3c(c(O)c1C2=O)C[C@@](O)(C(=O)CO)C[C@@H]3O[C@H]1C[C@H](N)[C@H](O)[C@H](C)O1 [DOX, doxorubicin]	decreasing	majority of the cells forming Oil Red O positive adipocytes	–	–	–	–	–
O=P1(N(CCCl)CCCl)NC(OO)CCO1 (stereo not shown) [4-HC, 4-hydroperoxycyclophosphamide]	–	–	greater than 15 μM	2 to 4	none of them survived	higher proliferation rate	did not adversely affect
